Results as given in US12486253B2, “Therapeutics for the degradation of mutant BRAF” (C4 THERAPEUTICS, INC., priority 2021, dated 2025).

Biological target: BRAF V600E (Homo sapiens, UniProt P15056, V600E)
Assay: HiBiT cellular BRAF^V600E degradation assay
Assay type: cell-based
Details: A375.10 cells, 24 h; for DC50: concentration at which 50% of total cellular BRAF^V600E is degraded; for Emax: residual protein remaining in the cell, read-out: HiBit 24 h Emax

Sequence of BRAF V600E (P15056 whole entry V600E): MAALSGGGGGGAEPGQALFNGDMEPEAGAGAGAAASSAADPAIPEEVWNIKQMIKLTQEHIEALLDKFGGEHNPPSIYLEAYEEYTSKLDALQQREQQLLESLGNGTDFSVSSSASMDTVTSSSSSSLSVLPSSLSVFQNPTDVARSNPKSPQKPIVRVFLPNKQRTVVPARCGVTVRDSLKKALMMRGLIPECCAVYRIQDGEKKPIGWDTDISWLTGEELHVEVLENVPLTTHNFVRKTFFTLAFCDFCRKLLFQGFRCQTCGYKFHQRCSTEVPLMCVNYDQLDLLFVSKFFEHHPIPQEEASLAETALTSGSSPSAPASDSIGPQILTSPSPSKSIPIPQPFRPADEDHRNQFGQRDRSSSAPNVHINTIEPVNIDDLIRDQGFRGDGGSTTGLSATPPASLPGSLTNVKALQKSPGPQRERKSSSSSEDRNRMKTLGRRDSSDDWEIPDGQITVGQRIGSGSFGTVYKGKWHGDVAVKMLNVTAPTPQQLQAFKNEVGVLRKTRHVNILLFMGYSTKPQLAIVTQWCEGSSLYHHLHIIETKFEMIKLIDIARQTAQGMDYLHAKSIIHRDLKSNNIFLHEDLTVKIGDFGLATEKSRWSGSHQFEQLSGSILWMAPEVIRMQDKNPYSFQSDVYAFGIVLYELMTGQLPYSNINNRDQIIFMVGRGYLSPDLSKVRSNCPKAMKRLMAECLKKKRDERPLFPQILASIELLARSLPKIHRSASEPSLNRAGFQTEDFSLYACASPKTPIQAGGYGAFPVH

| Compound | DC50 | Emax |
| --- | --- | --- |
| CCN(C)S(=O)(=O)Nc1ccc(F)c(C(=O)c2ccc3ncn(-c4cnc(N5CCN(C(=O)CN6CCC(c7ccc(N[C@@H]8CCC(=O)NC8=O)cc7F)CC6)CC5)nc4)c(=O)c3c2)c1F [Example 141, 3-[2-[4-[2-[4-[4-[[(3R)-2,6-dioxopiperidin-3-yl]amino]-2-fluorophenyl]piperidin-1-yl]acetyl]piperazin-1-yl]pyrimidin-5-yl]-6-[3-[[ethyl(methyl)sulfamoyl]amino]-2,6-difluorobenzoyl]-4-oxoquinazoline] | 55 nM | 26.3% |
| CCN(C)S(=O)(=O)Nc1ccc(F)c(Oc2ccc3ncn(CCC4CCN(C(=O)CN5CCC(c6ccc7c(C8CCC(=O)NC8=O)nn(C)c7c6)CC5)CC4)c(=O)c3c2)c1C#N (stereo not drawn) [Example 144, 6-[2-cyano-3-[[ethyl(methyl)sulfamoyl]amino]-6-fluorophenoxy]-3-[2-[1-[2-[4-[3-(2,6-dioxopiperidin-3-yl)-1-methylindazol-6-yl]piperidin-1-yl]acetyl]piperidin-4-yl]ethyl]-4-oxoquinazoline] | 28.4 nM | 16.7% |
| CCN(C)S(=O)(=O)Nc1ccc(F)c(Oc2ccc3ncn(CCCC4CCN(C(=O)CN5CCC(c6ccc7c(C8CCC(=O)NC8=O)nn(C)c7c6)CC5)CC4)c(=O)c3c2)c1C#N (stereo not drawn) [Example 145, 6-[2-cyano-3-[[ethyl(methyl)sulfamoyl]amino]-6-fluorophenoxy]-3-[3-[1-[2-[4-[3-(2,6-dioxopiperidin-3-yl)-1-methylindazol-6-yl]piperidin-1-yl]acetyl]piperidin-4-yl]propyl]-4-oxoquinazoline] | 10.6 nM | 15% |
| CCN(C)S(=O)(=O)Nc1ccc(F)c(Oc2ccc3ncn(-c4cnn(C5CCN(C(=O)CN6CCC(c7ccc8c(C9CCC(=O)NC9=O)nn(C)c8c7)CC6)CC5)c4)c(=O)c3c2)c1C#N (stereo not drawn) [Example 146, 6-[2-cyano-3-[[ethyl(methyl)sulfamoyl]amino]-6-fluorophenoxy]-3-[1-[1-[2-[4-[3-(2,6-dioxopiperidin-3-yl)-1-methylindazol-6-yl]piperidin-1-yl]acetyl]piperidin-4-yl]pyrazol-4-yl]-4-oxoquinazoline] | 22.2 nM | 16% |
| CCN(C)S(=O)(=O)Nc1ccc(F)c(Oc2ccc3ncn(C4CC5(CCN(C(=O)CN6CCC(c7ccc8c(N9CCC(=O)NC9=O)nn(C)c8c7)CC6)CC5)C4)c(=O)c3c2)c1C#N [Example 147, 6-[2-cyano-3-[[ethyl(methyl)sulfamoyl]amino]-6-fluorophenoxy]-3-[7-[2-[4-[3-(2,4-dioxo-1,3-diazinan-1-yl)-1-methylindazol-6-yl]piperidin-1-yl]acetyl]-7-azaspiro[3.5]nonan-2-yl]-4-oxoquinazoline] | 26.9 nM | 9.49% |
| CCN(C)S(=O)(=O)Nc1ccc(F)c(Oc2ccc3ncn(C4COC5(CCN(C(=O)CN6CCC(c7ccc8c(N9CCC(=O)NC9=O)nn(C)c8c7)CC6)CC5)C4)c(=O)c3c2)c1C#N (stereo not drawn) [Example 148, 3-[6-[2-cyano-3-[[ethyl(methyl)sulfamoyl]amino]-6-fluorophenoxy]-4-oxoquinazolin-3-yl]-8-[2-[4-[3-(2,4-dioxo-1,3-diazinan-1-yl)-1-methylindazol-6-yl]piperidin-1-yl]acetyl]-1-oxa-8-azaspiro[4.5]decane] | 18.4 nM | 8.7% |
| CCN(C)S(=O)(=O)Nc1ccc(F)c(Oc2ccc3ncn(C4CC5(CCN(C(=O)CN6CCC(c7ccc8c(C9CCC(=O)NC9=O)nn(C)c8c7)CC6)CC5)C4)c(=O)c3c2)c1C#N (stereo not drawn) [Example 149, 6-[2-cyano-3-[[ethyl(methyl)sulfamoyl]amino]-6-fluorophenoxy]-3-[7-[2-[4-[3-(2,6-dioxopiperidin-3-yl)-1-methylindazol-6-yl]piperidin-1-yl]acetyl]-7-azaspiro[3.5]nonan-2-yl]-4-oxoquinazoline] | 10.7 nM | 11.5% |
| CCN(C)S(=O)(=O)Nc1ccc(F)c(Oc2ccc3ncn([C@H]4COC5(CCN(C(=O)CC6CCN(c7ccc8c(C9CCC(=O)NC9=O)nn(C)c8c7)CC6)CC5)C4)c(=O)c3c2)c1C#N (stereo partly drawn) [Example 151, (3R)-3-[6-[2-cyano-3-[[ethyl(methyl)sulfamoyl]amino]-6-fluorophenoxy]-4-oxoquinazolin-3-yl]-8-[2-[1-[3-(2,6-dioxopiperidin-3-yl)-1-methylindazol-6-yl]piperidin-4-yl]acetyl]-1-oxa-8-azaspiro[4.5]decane] | 18.7 nM | 24.6% |
| CCN(C)S(=O)(=O)Nc1ccc(F)c(Oc2ccc3ncn([C@H]4COC5(CCN(C(=O)CC6(O)CCN(c7ccc8c(C9CCC(=O)NC9=O)nn(C)c8c7)CC6)CC5)C4)c(=O)c3c2)c1C#N (stereo partly drawn) [Example 152, (3R)-3-[6-[2-cyano-3-[[ethyl(methyl)sulfamoyl]amino]-6-fluorophenoxy]-4-oxoquinazolin-3-yl]-8-[2-[1-[3-(2,6-dioxopiperidin-3-yl)-1-methylindazol-6-yl]-4-hydroxypiperidin-4-yl]acetyl]-1-oxa-8-azaspiro[4.5]decane] | 27.2 nM | 25.2% |
| CCN(C)S(=O)(=O)Nc1ccc(F)c(Oc2ccc3ncn([C@H]4CCC5(CCN(C(=O)CN6CCC(c7ccc8c(N9CCC(=O)NC9=O)nn(C)c8c7)CC6)CC5)C4)c(=O)c3c2)c1C#N [Example 154, 6-[2-cyano-3-[[ethyl(methyl)sulfamoyl]amino]-6-fluorophenoxy]-3-[(3S)-8-[2-[4-[3-(2,4-dioxo-1,3-diazinan-1-yl)-1-methylindazol-6-yl]piperidin-1-yl]acetyl]-8-azaspiro[4.5]decan-3-yl]-4-oxoquinazoline] | 24.6 nM | 11.1% |
| CCN(C)S(=O)(=O)Nc1ccc(F)c(Oc2ccc3ncn(C4CCC5(CC4)CCN(C(=O)CN4CCC(c6ccc7c(N8CCC(=O)NC8=O)nn(C)c7c6)CC4)CC5)c(=O)c3c2)c1C#N [Example 155, 9-[6-[2-cyano-3-[[ethyl(methyl)sulfamoyl]amino]-6-fluorophenoxy]-4-oxoquinazolin-3-yl]-3-[2-[4-[3-(2,4-dioxo-1,3-diazinan-1-yl)-1-methylindazol-6-yl]piperidin-1-yl]acetyl]-3-azaspiro[5.5]undecane] | 23.2 nM | 9.75% |
| CCN(C)S(=O)(=O)Nc1ccc(F)c(Oc2ccc3ncn(C4CCC5(CC4)CCN(C(=O)CN4CCC(c6ccc7c(C8CCC(=O)NC8=O)nn(C)c7c6)CC4)CC5)c(=O)c3c2)c1C#N (stereo not drawn) [Example 156, 9-[6-[2-cyano-3-[[ethyl(methyl)sulfamoyl]amino]-6-fluorophenoxy]-4-oxoquinazolin-3-yl]-3-[2-[4-[3-(2,6-dioxopiperidin-3-yl)-1-methylindazol-6-yl]piperidin-1-yl]acetyl]-3-azaspiro[5.5]undecane] | 26.6 nM | 21% |
| CCN(C)S(=O)(=O)Nc1ccc(F)c(Oc2ccc3ncn(C4CCC5(CC4)CCN(C(=O)CC4(O)CCN(c6cc7c(cc6F)c(N6CCC(=O)NC6=O)nn7C)CC4)CC5)c(=O)c3c2)c1C#N [Example 158, 9-[6-[2-cyano-3-[[ethyl(methyl)sulfamoyl]amino]-6-fluorophenoxy]-4-oxoquinazolin-3-yl]-3-[2-[1-[3-(2,4-dioxo-1,3-diazinan-1-yl)-5-fluoro-1-methylindazol-6-yl]-4-hydroxypiperidin-4-yl]acetyl]-3-azaspiro[5.5]undecane] | 25 nM | 30% |
| CCN(C)S(=O)(=O)Nc1ccc(F)c(Oc2ccc3ncn([C@H]4CCC5(CCN(C(=O)CC6(O)CCN(c7cc8c(cc7F)c(N7CCC(=O)NC7=O)nn8C)CC6)CC5)C4)c(=O)c3c2)c1C#N [Example 159, 6-[2-cyano-3-[[ethyl(methyl)sulfamoyl]amino]-6-fluorophenoxy]-3-[(3S)-8-[2-[1-[3-(2,4-dioxo-1,3-diazinan-1-yl)-5-fluoro-1-methylindazol-6-yl]-4-hydroxypiperidin-4-yl]acetyl]-8-azaspiro [4.5]decan-3-yl]-4-oxoquinazoline] | 6.98 nM | 18.8% |
| CCN(C)S(=O)(=O)Nc1ccc(F)c(Oc2ccc3ncn([C@H]4CCC5(CCN(C(=O)CN6CCC(c7ccc8c(C9CCC(=O)NC9=O)nn(C)c8c7)C(F)(F)C6)CC5)C4)c(=O)c3c2)c1C#N (stereo partly drawn) [Example 160, 6-[2-cyano-3-[[ethyl(methyl)sulfamoyl]amino]-6-fluorophenoxy]-3-[(3S)-8-[2-[4-[3-(2,6-dioxopiperidin-3-yl)-1-methylindazol-6-yl]-3,3-difluoropiperidin-1-yl]acetyl]-8-azaspiro[4.5]decan-3-yl]-4-oxoquinazoline] | 22.2 nM | 23.9% |
| CCN(C)S(=O)(=O)Nc1ccc(F)c(Oc2ccc3ncn([C@H]4CCC5(CCN(C(=O)CN6CCN(c7cc8c(cc7F)c(N7CCC(=O)NC7=O)nn8C)CC6)CC5)C4)c(=O)c3c2)c1C#N [Example 162, 6-[2-cyano-3-[[ethyl(methyl)sulfamoyl]amino]-6-fluorophenoxy]-3-[(3S)-8-[2-[4-[3-(2,4-dioxo-1,3-diazinan-1-yl)-5-fluoro-1-methylindazol-6-yl]piperazin-1-yl]acetyl]-8-azaspiro [4.5]decan-3-yl]-4-oxoquinazoline] | 17.3 nM | 14.5% |
| CCN(C)S(=O)(=O)Nc1ccc(F)c(Oc2ccc3ncn(C4CCC5(CC4)CCN(C(=O)CN4CCN(c6cc7c(cc6F)c(N6CCC(=O)NC6=O)nn7C)CC4)CC5)c(=O)c3c2)c1C#N [Example 163, 9-[6-[2-cyano-3-[[ethyl(methyl)sulfamoyl]amino]-6-fluorophenoxy]-4-oxoquinazolin-3-yl]-3-[2-[4-[3-(2,4-dioxo-1,3-diazinan-1-yl)-5-fluoro-1-methylindazol-6-yl]piperazin-1-yl]acetyl]-3-azaspiro[5.5]undecane] | 27.6 nM | 16.2% |
| CCN(C)S(=O)(=O)Nc1ccc(F)c(Oc2ccc3ncn([C@H]4COC5(CCN(C(=O)CN6CCN(c7cc8c(cc7F)c(N7CCC(=O)NC7=O)nn8C)CC6)CC5)C4)c(=O)c3c2)c1C#N [Example 164, (3R)-3-[6-[2-cyano-3-[[ethyl(methyl)sulfamoyl]amino]-6-fluorophenoxy]-4-oxoquinazolin-3-yl]-8-[2-[4-[3-(2,4-dioxo-1,3-diazinan-1-yl)-5-fluoro-1-methylindazol-6-yl]piperazin-1-yl]acetyl]-1-oxa-8-azaspiro[4.5]decane] | 26.6 nM | 15.6% |
